From patent publication US20110003015A1, “STABILIZED COMPOSITION COMPRISING AT LEAST ONE ADRENERGIC COMPOUND” (ALK AG, priority 2009, published 2011) come the findings set out here.

Read-outs that look alike come from different tables or passages of the source.

The procedure of data set [1]: The formulation solutions were prepared at a level of 1.0 mg/ml adrenaline (in the form of the tartrate), pH 3.4 containing, 0.6% sodium chloride, with various molar ratios (0.25-0.59) of sodium metabisulfite added. The metabisulfite/adrenaline molar ratios tested were 0.25, 0.34, 0.42, 0.5 and 0.59, which correspond to sulfite/adrenaline ratios of 0.5, 0.68, 0.84, 1.0 and 1.18, respectively. For the ease of reference to the general description and claims of this specification, the said values correspond to a molar ratio of adrenaline to sulfite of 2.0, 1.47, 1.19, 1.0 and 0.85, respectively.
Each sample solution was split into two lots. For each sample solution, one lot was placed at the accelerated test temperature of 60° C., protected from light and the other lot placed in a photo-stability cabinet at 25° C. which provided 13400 lux visible light, 1.50 W.h/m^2 UV. Samples were pulled from both conditions at 0, 7, 14 and 28 days At each pull point, the appearance of the test solution was assessed, the pH measured and the adrenaline content measured together with impurities.
This is another data set of the same source.

For data set [2] the following is noted: at the metabisulfite levels contemplated; 60° C. How it is done:
A 1.1 mg/ml solution of adrenaline (6.004×10^−3 M), in the form of the tartrate, pH 3.4 and containing 0.6% sodium chloride was used. A range of metabisulfite antioxidant concentrations, with and without admixture of 0.25% di-sodium edetate as chelating agent were tested. The metabisulfite/adrenaline molar ratios tested were 0.1, 0.2, 0.5, 1.0 and 1.5, which correspond to sulfite/adrenaline ratios of 0.2, 0.4, 1.0, 2.0 and 3.0, respectively. For the ease of reference to the general description and claims of this specification, the said values correspond to a molar ratio of adrenaline to sulfite of 5.0, 2.5, 1.0, 0.5 and 0.33, respectively.
The accelerated test temperature was 60° C., protected from light, and samples were pulled at 0, 7, 14, 21 and 28 days. At each pull point, the appearance of the test solution was assessed, the pH measured and the solution assayed for adrenaline content. The appearance of degradation products was noted as area %.
[adr]^+ relates to samples containing 0.025% di-sodium edetate, whereas [adr] relates to samples containing no chelating agent.

Regarding `CNC[C@H](O)c1ccc(O)c(O)c1` [adrenaline, (R)-4-(1-hydroxy-2-(methylamino)ethyl)benzene-1,2-diol], the “pH for maximum stability of epinephrine in solution” value was “about 3.4”. In data set [1], the “molar ratio of metabisulfite to adrenaline in which stability of adrenaline is improved” value is on record as 0.25-0.59. In addition, in data set [1] (Examples 2 and 3 summarised, 60° C., FIGS. 8 and 9), the “optimum sulfite:adrenaline ratio” value is reported as “about 1.0”. The “first choice of metabisulfite content with respect to adrenaline” value in data set [1] (considering both thermal and photo stresses) is listed as “half molar”. Besides, the “best metabisulfite:adrenaline ratio on the basis of total impurities” value in data set [1] (heat stress 60° C.) is listed as 0.42. In data set [1] (photo-stress, 25° C., 13400 lux visible light, 1.50 W.h/m^2 UV), the “best metabisulfite:adrenaline ratio on the basis of total impurities” value was determined as 0.5.
As for `O=C([O-])CN(CCN(CC(=O)[O-])CC(=O)O)CC(=O)O.[Na+].[Na+]` [di-sodium edetate], in data set [2], the “advantage of using a chelating agent for adrenaline solution stability” value is on record as “no advantage”.
